“Also recorded” adds a separate entry of the source.
Assays:
OCI-Ly7 cells [1] = assay: Inhibition of CD40-mediated apoptosis by kinase inhibitors (viable cell count); assay type: cell-based, human; conditions: 96 hours CD40 stimulation, U0126 10 μM, PD98059 50 μM, SB203580 10 μM added 30 minutes prior
Experimental: (§1) FIG. 10 is a bar graph showing the effect of ERK inhibition on CD40-mediated apoptosis. Cells were subjected to CD40 stimulation for 96 hours in the presence of the MEK1/2 inhibitors U0126 (10 μM) or PD98059 (50 μM), or the p38 inhibitor SB203580 (10 μM). Cell viability was quantitated by staining nonpermeabilized cells with propidium iodide, and counting the number of unstained (live) cells per unit volume using a Becton-Dickinson FACScan flow cytometer set to count for 30 seconds. The number of viable cells in anti-CD40-treated samples was expressed as a percentage of the number of viable cells incubated in secondary antibody only. Results from three experiments of four replicates each are shown. Error bars represent standard deviations. […] Constitutive ERK phosphorylation is correlated with CD40-mediated cell death.
(§2) Cells were resuspended at 1×10^5 cells/mL in RPMI 1640 medium supplemented as described above. Anti-CD40 antibody G28.5 and secondary crosslinking antibody HB58 were added to a final concentration of 10 μg/mL each, and the cells were incubated at 37° C. At 24 hour intervals aliquots of cells were harvested by centrifugation, washed once in phosphate buffered saline, and resuspended in FACS buffer. Non-permeabilized cells were stained by addition of 1 μg/mL propidium iodide, and the density of viable cells was determined using a FACScan flow cytometer and CellQuest software (Becton Dickinson, Mississauga, ON, Canada) set to count for a fixed 30-second time interval. To determine the fraction of cells that had undergone apoptosis, total intracellular DNA content was measured by propidium iodide staining of ethanol-permeabilized cells as previously described (16). Expression of CD40 on the cell surface was confirmed by staining non-permeabilized cells with a phycoerythrin-linked anti-CD40 antibody (clone 5C3, Becton-Dickinson) as per the manufacturer's directions, followed by flow cytometry.

Su-DHL4 cells [2] = assay: as above; assay type: cell-based, human; conditions: 96 hours CD40 stimulation, U0126 10 μM, PD98059 50 μM, SB203580 10 μM added 30 minutes prior
Experimental: as §1, §2

OCI-Ly7 cells [3] = assay: Growth inhibition by kinase inhibitors (MTT assay); assay type: cell-based, human; conditions: 96 hours; inhibitor 10^−4 to 10^−8 M
From the text: (§3) Error bars indicate standard deviations.

Su-DHL4 cells [4] = assay: Growth inhibition by kinase inhibitors (MTT assay); assay type: cell-based, human; conditions: 96 hours; inhibitor 10^−4 to 10^−8 M
From the text: as §3

[5] = test system: CD40-sensitive and CD40-resistant DLCBL lines (OCI-Ly1, OCI-Ly7, OCI-Ly8, Su-DHL4); conditions: 96 hours; inhibitor 10^−4 to 10^−8 M
Experimental: Sensitivity of the cell lines to inhibition of LCK and ERK activity was tested by addition of the src family kinase inhibitor PP1 or the MEK1/2 inhibitor U0126. Cells were incubated for 96 hours in inhibitor concentrations ranging from 10^−4 to 10^−8 M, and viability was assessed by MTT [3-(4,5-dimethylthiazol-2-yl)-2,5-diphenyltetrazolium bromide] assay. Viability is expressed as a percentage of the absorbance at 570 nm as compared to untreated samples. Results of two experiments with quadruplicate samples each were combined. Error bars indicate standard deviations.
The src family kinase inhibitor PP1 and the MEK inhibitor U0126 were purchased from Biomol (Plymouth Meeting, Pa., USA), and from Cell Signaling Technology (Beverly, Mass., USA) respectively. Kinase inhibition assays were performed using cells seeded at a density of 5×10^4 per mL in 96-well plates, to which kinase inhibitors were added to final concentrations of 10^−4 to 10^−8 M. The treated cells were incubated at 37° C. for 96 hours and cell viability was quantitated by MTT assay as previously described (17).

[6] = test system: phosphorylated ERK in Su-DHL4 cells; conditions: 10 μM, 48 hours
Experimental: Cells were permeabilized in Cytofix/Cytoperm (Becton-Dickinson) for 20 minutes, and stained with anti-phospho-ERK antibody (Cell Signaling Technology #9101) and FITC-conjugated anti-rabbit secondary antibody (Cedarlane Laboratories, Hornby, ON, CA) following the manufacturers' instructions. The stained cells were analyzed by flow cytometry with a FACScan flow cytometer and CellQuest software.
This hypothesis was tested using pharmacologic inhibitors of MEK. Su-DHL4 cells were incubated in the presence of 10 μM U0126 for 48 hours, permeabilized and stained with an anti-phospho-ERK antibody.

Su-DHL4 cells [7] = assay: Cell death after treatment with calcium ionophore; assay type: cell-based, human

`COc1cccc(-c2cc(=O)c3ccccc3o2)c1N` [PD98059] was tested, and the “CD40-mediated cell death (viable cells in anti-CD40-treated samples vs secondary antibody only)” value (OCI-Ly7 cells [1]) was “prevented CD40-mediated reduction in viability”, the “CD40-mediated cell death (viable cells in anti-CD40-treated samples vs secondary antibody only)” value (OCI-Ly7 cells [1]; listed as PD98058) was “reduced CD40-mediated cell death” and the “CD40-mediated cell death (viable cells in anti-CD40-treated samples vs secondary antibody only)” value (Su-DHL4 cells [2]) was “prevented CD40-mediated reduction in viability”. The “CD40-mediated cell death (viable cells in anti-CD40-treated samples vs secondary antibody only)” value (Su-DHL4 cells [2]; listed as PD98058) was “reduced CD40-mediated cell death”.
`Cc1ccc(-c2nn(C(C)(C)C)c3ncnc(N)c23)cc1` [PP1] was tested, and the “growth (viability by MTT assay)” value (OCI-Ly7 cells [3]) was “more effective at reducing proliferation; also recorded: inhibited by PP1 more efficiently than growth of CD40-resistant OCI-Ly1 and OCI-Ly8 cells” and the “growth (viability by MTT assay)” value (Su-DHL4 cells [4]) was “more effective at reducing proliferation; also recorded: inhibited by PP1 more efficiently than growth of CD40-resistant OCI-Ly1 and OCI-Ly8 cells”.
`C[S+]([O-])c1ccc(-c2nc(-c3ccncc3)c(-c3ccc(F)cc3)[nH]2)cc1` (stereo not shown) [SB203580] was tested, and the “CD40-mediated cell death (viable cells in anti-CD40-treated samples vs secondary antibody only)” value (OCI-Ly7 cells [1]) was “reduced by CD40 ligation” and the “CD40-mediated cell death (viable cells in anti-CD40-treated samples vs secondary antibody only)” value (Su-DHL4 cells [2]) was “reduced by CD40 ligation”.
With `N#CC(=C(/N)Sc1ccccc1N)/C(C#N)=C(\N)Sc1ccccc1N` [U0126] the “CD40-mediated cell death (viable cells in anti-CD40-treated samples vs secondary antibody only)” value (OCI-Ly7 cells [1]) was “prevented CD40-mediated reduction in viability; also recorded: reduced CD40-mediated cell death”, the “CD40-mediated cell death (viable cells in anti-CD40-treated samples vs secondary antibody only)” value (Su-DHL4 cells [2]) was “prevented CD40-mediated reduction in viability; also recorded: reduced CD40-mediated cell death” and the “differential effects on growth of CD40-sensitive and CD40-resistant DLCBL lines” value [5] was “did not show differential effects”. The “phosphorylation of ERK” value [6] was “reduced”.
In the case of `C[C@H](CCC(=O)O)C[C@H](C)C[C@H](C)C(=O)/C=C(\O)[C@H](C)C[C@H](C)C/C=C/[C@@H](C)[C@@H](O)[C@@H](C)[C@@H](O)C[C@@H]1CC[C@@](C)([C@H]2CC[C@@](C)([C@@H](C)O)O2)O1` [ionomycin], the cell death (Su-DHL4 cells [7]) is reported as “induced cell death”.

Source: patent publication US20090075272A1, “Method to Identify CD40-Sensitive Cells Using Gene Expression” (priority 2007, published 2009)
